Measurements from paper PMC11481279 (Europace, 2024).

Target: SARS-CoV-2 ORF 3a protein (Severe acute respiratory syndrome coronavirus 2, UniProt P0DTC3)
Assay: cell-based
Settings: read-out: % inhibition at 100 μM

Row | Structure (SMILES) | inhibition at 100 µM
1 | CC(C)NC[C@@H](O)c1ccc(NS(C)(=O)=O)cc1 [D-Sotalol] | 20.6 ± 4.5%
2 | CN(CCOc1ccc(NS(C)(=O)=O)cc1)CCc1ccc(NS(C)(=O)=O)cc1 [Dofetilide] | 65.1 ± 6.7%
3 | CCCCc1oc2ccc(NS(C)(=O)=O)cc2c1C(=O)c1ccc(OCCCN(CCCC)CCCC)cc1 [Dronedarone] | 45.4 ± 4.7%
4 | CCCCCCCN(CC)CCCC(O)c1ccc(NS(C)(=O)=O)cc1 (stereo not shown) [Ibutilide] | 36.4 ± 6.6%
